{
  "source": "patent US9527819B2",
  "about": "“Pyridazine compounds, compositions and methods” (NORTHWESTERN UNIVERSITY, priority 2004, dated 2016)",
  "key": {"hERG": {"target": "hERG (Homo sapiens, UniProt Q12809)", "sequence (Q12809 whole entry)": "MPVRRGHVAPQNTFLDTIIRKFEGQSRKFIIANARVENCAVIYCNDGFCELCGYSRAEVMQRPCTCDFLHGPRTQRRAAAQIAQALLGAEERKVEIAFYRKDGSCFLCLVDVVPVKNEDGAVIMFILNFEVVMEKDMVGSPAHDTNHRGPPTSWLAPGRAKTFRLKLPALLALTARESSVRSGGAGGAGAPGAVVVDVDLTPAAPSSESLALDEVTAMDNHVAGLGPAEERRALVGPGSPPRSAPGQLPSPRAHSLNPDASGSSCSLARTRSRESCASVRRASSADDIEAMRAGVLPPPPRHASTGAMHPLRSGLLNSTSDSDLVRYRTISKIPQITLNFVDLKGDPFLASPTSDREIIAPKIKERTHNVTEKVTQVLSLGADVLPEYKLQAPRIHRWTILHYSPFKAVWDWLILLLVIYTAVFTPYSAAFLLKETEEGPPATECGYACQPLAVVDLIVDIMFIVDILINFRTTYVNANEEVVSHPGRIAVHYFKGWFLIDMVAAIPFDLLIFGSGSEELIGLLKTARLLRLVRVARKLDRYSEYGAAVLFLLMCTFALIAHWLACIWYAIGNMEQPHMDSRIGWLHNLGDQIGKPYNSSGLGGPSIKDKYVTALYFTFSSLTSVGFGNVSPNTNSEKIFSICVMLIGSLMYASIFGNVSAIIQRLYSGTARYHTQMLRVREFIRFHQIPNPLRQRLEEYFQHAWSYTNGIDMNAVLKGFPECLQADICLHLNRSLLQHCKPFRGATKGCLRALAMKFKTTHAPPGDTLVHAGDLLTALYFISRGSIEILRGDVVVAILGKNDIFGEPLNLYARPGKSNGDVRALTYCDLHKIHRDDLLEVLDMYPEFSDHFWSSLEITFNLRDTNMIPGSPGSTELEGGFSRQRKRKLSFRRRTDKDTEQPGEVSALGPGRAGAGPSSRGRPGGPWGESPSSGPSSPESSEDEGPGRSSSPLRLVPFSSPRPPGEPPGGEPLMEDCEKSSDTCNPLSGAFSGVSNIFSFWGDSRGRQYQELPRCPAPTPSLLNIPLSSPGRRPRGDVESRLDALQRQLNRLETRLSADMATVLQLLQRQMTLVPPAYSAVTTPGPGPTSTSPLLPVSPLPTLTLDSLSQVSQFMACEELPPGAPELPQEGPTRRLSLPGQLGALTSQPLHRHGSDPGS", "test": "hERG competition binding assay (3H-astemizole)", "conditions": "HEK-293 cells stably expressing recombinant hERG channels, probe 3H-astemizole", "from_the_text": "The initial assay is a radioligand binding assay that tests the ability of the test compound to compete with ^3H-astemizole (a reference standard that binds to hERG channels with nM affinity) for binding to recombinant hERG channels stably expressed on human HEK-293 cells. […] This is usual for medium throughout screens but is not recommended in the FDA document and tends to give false positives, as evidenced by the results reported below."}, "anesthetized guinea pigs": {"system": "anesthetized guinea pigs", "test": "Cardiac QT interval prolongation assay", "format": "in vivo, guinea pig", "conditions": "PO 15 mg/kg", "protocol": "The QT interval studies are performed by evaluating compounds for effects on QT interval in Lead II electrocardiograms measured in anesthetized guinea pigs (Hirohashi et al., 1991), one of the species recommended in the FDA white paper. Vehicle or compound is administered orally at 15 mg/kg (dosing volume of 10 ml/kg) to groups of male guinea pigs (weighing 330-350 g), with 5 animals per group. […] Heart rate, arterial blood pressure, and QT intervals are measured at baseline, and at 15, 30, 45, and 60 min after compound administration. Sotalol administered iv at 0.3 mg/kg serves as the positive control compound. The QT intervals are corrected for changes in heart rate using both Bazett's and Fridericia's formulae. Any increase in QT interval values over baseline values exceeding the upper 95% confidence limit of the mean changes at the corresponding time point in the vehicle-treated control group for two consecutive observation times indicates significant QT interval prolongation in the individually treated animals."}, "[1]": {"system": "BV-2 mouse microglial cells", "test": "LPS-stimulated proinflammatory cytokine production in BV-2 microglial cell culture assay", "format": "cell-based", "conditions": "for IL-1β production / TNFα production: LPS 100 ng/ml, 16 hrs, levels in cell lysates", "protocol": "EL-1/3 and TNFa levels in cell lysates were determined by electro-chemiluminescent detection in a Meso-Scale Discovery (MSD) kit, as per the manufacturer's instructions.\nData are the mean+/− SEM of triplicate determinations."}, "activated glia": {"system": "activated glia", "test": "Western blots of iNOS, COX-2, apoE production in activated glia cultures", "format": "cell-based", "conditions": "7.5 μM, western blot", "protocol": "Cultures were treated with control buffer, C, or activated in the absence, A, or presence, A+188, of 7.5 μMW01-5-188WH. […] Bar=125 μm. […] A schematic of the experimental paradigm is shown. […] Bars=25 μm. […] Quantification of amyloid burden from all mice (n=5/group) was done by determination of the amyloid load. Data are mean±SEM. […] (C) Spontaneous alternation of mice in the Y-maze, a hippocampus-dependent spatial learning task, was measured for 10 days during the 7th and 8th week after the start of Aβ infusion. Data are mean±SEM of n=5 or 10 per group."}, "[2]": {"system": "Aβ-infused mice (hippocampus)", "test": "Human Aβ infusion mouse model of neuroinflammation and neuronal injury", "format": "in vivo", "from_the_text": "Briefly, oligomeric […] was infused ICV for 28 days with a micro-osmotic pump. […] At post-operative day 60, mice were perfused and sacrificed, and hippocampal endpoints measured as previously described. Endpoint assays included immunohistochemical detection of activated astrocytes and microglia by glial fibrillary acidic protein (GFAP) and F4/80 staining, measurement of the levels of the pro-inflammatory cytokines IL-1|S, TNFa, and S100B by ELISA, and determination of synaptic damage by analysis of the levels of postsynaptic density protein-95 (PSD-95). […] Cultures were treated with control buffer, C, or activated in the absence, A, or presence, A+188, of 7.5 μMW01-5-188WH. […] Bar=125 μm. […] A schematic of the experimental paradigm is shown. […] Bars=25 μm. […] Quantification of amyloid burden from all mice (n=5/group) was done by determination of the amyloid load. Data are mean±SEM. […] (C) Spontaneous alternation of mice in the Y-maze, a hippocampus-dependent spatial learning task, was measured for 10 days during the 7th and 8th week after the start of Aβ infusion. Data are mean±SEM of n=5 or 10 per group."}, "hERG K+ channel": {"target": "T1, hERG K+ channel (Homo sapiens, UniProt Q12809)", "T1 construct": "MDS PharmaService (commercial assay service)", "T1 sequence (Q12809 whole entry)": "as above", "test": "hERG channel activity patch clamp inhibition assay", "format": "cell-based", "conditions": "three concentrations (0.1, 1, 10 μM), whole cell patch clamp", "from_the_text": "The hERG channel activity inhibition assay provides whole cell electrophysiological data about compound effects on the hERG K^+ channel function. Whole cell patch clamp methodology is generally considered to be the gold-standard determination of ion channel activity, rather than simply measuring channel binding. The standard testing procedure is to use 3 to 5 concentrations of compound at log dilutions with each concentration tested in triplicate (three cells). This allows a balance between achieving a reasonably accurate IC50 measurement against a broad concentration range, and reducing cell attrition that would occur during more protracted experiment durations. After completion of compound dose-response procedures, a known hERG channel inhibitor, such as astemizole, is applied as a positive control."}, "[3]": {"test": "Stability in liver microsomes", "format": "in vitro ADME, rat", "conditions": "1 μM, NADPH-regenerating system, 37° C.", "from_the_text": "The HPLC system (Dionex Corp., Sunnyvale, Calif.) includes a Dionex […] pump, a Phenomenex Luna."}, "[4]": {"test": "Oral administration / brain uptake assay", "conditions": "mouse, in vivo", "quoted_text": "At various times (0-60 min) after administration, mice were sacrificed, blood removed by cardiac puncture, and brains immediately harvested, weighed, quick-frozen in liquid nitrogen, and stored at −80° C. until assayed. Brain tissue was homogenized in 1.5 ml of 0.1 M perchloric acid. After centrifugation (12,000×g for 10 min), the supernatant was neutralized, with 1 M NaOH and then extracted three times with 2 ml of dichloromethane by centrifugation at 3,000×g for 5 min. The organic phases from the three successive extractions were pooled and then vaporated to dryness under reduced pressure. The dried sample was reconstituted in 100 ul of HPLC mobile phase (80% acetonitrile, 0.08% formic acid, 20% H2O), and 20 μl of the reconstituted material was injected into the HPLC system. […] A standard curve of the test compound was prepared by adding increasing concentrations of the compound to brain, tissue from untreated mice, then extracting the brains and performing HPLC analysis as described above. The area under the curve increased linearly with the concentration of the compound over the range of concentrations investigated, with a correlation coefficient of 0.99."}},
  "data": [
    {"smiles": "c1ccc(-c2cc(-c3ccccc3)c(N3CCN(c4ncccn4)CC3)nn2)cc1", "note": "[MW01-5-188WH, 4,6-diphenyl-3-(4-pyrimidin-2-ylpiperazin-1-yl)pyridazine]", "values": [
      {"measurement": "inhibition at 10 µM", "setting": "hERG", "result": 91, "unit": "%"},
      {"measurement": "heart rate", "setting": "anesthetized guinea pigs", "result": "no significant effects"},
      {"measurement": "mean blood pressure", "setting": "anesthetized guinea pigs", "result": "no significant effects"},
      {"measurement": "IL-1β production", "setting": "[1]", "result": "concentration-dependent inhibition"},
      {"measurement": "TNFα production", "setting": "[1]", "result": "concentration-dependent inhibition"},
      {"measurement": "Accumulation of the NO metabolite, nitrite", "setting": "[1]; concentrations up to 33 μM", "result": "not inhibited"},
      {"measurement": "COX-2 production", "setting": "activated glia", "result": "does not suppress"},
      {"measurement": "apoE production", "setting": "activated glia", "result": "does not suppress"},
      {"measurement": "iNOS production", "setting": "activated glia", "result": "does not suppress"},
      {"measurement": "number of F4/80 positive microglia in the hippocampus", "setting": "[2]; daily oral […] for 2 weeks", "result": "decreased"}
    ]},
    {"smiles": "c1ccc(-c2cc(-c3ccncc3)c(N3CCN(c4ncccn4)CC3)nn2)cc1", "note": "[MW01-6-189WH, 4-pyridyl-6-phenyl-3-(4-pyrimidin-2-ylpiperazin-1-yl)pyridazine]", "values": [
      {"measurement": "IC50", "setting": "hERG K+ channel", "result": 4.81, "unit": "µM"}
    ]},
    {"smiles": "Cc1cc(-c2ccccc2)nnc1N1CCN(c2ncccn2)CC1", "note": "[MW01-2-151SRM, 4-methyl-6-phenyl-3-(4-pyrimidin-2-ylpiperazin-1-yl)pyridazine]", "values": [
      {"measurement": "inhibition at 10 µM", "setting": "hERG", "result": 8, "unit": "%"},
      {"measurement": "heart rate", "setting": "anesthetized guinea pigs", "result": "no significant effects"},
      {"measurement": "mean blood pressure", "setting": "anesthetized guinea pigs", "result": "no significant effects"},
      {"measurement": "cardiac QT interval", "setting": "anesthetized guinea pigs; baseline, 15, 30, 45, 60 min, vs mean+2 SD of vehicle control", "result": "Neither compound increased"},
      {"measurement": "activated glia responses", "setting": "[1]", "result": "selective suppressor"},
      {"measurement": "IL-1β production", "setting": "[1]", "result": "suppress IL-1β in a concentration dependent manner"},
      {"measurement": "IC50", "setting": "hERG K+ channel", "result": 9.21, "unit": "µM"},
      {"measurement": "efficacy in the mouse model of human Aβ-induced neuroinflammation and neuronal injury", "setting": "[2]; mouse, in vivo", "result": "showed efficacy"},
      {"measurement": "inflammatory response endpoints outside the brain", "setting": "[2]; mouse, in vivo", "result": "did not suppress"},
      {"measurement": "stability in microsomes", "setting": "[3]", "result": "demonstrated"},
      {"measurement": "oral availability", "setting": "[4]", "result": "orally available"}
    ]},
    {"smiles": "c1ccc(-c2ccc(N3CCN(c4ncccn4)CC3)nn2)cc1", "note": "[MW01-3-183WH, 2-(4-(6-phenylpyridazin-3-yl)piperazin-1-yl)pyrimidine]", "values": [
      {"measurement": "IL-1β production", "setting": "[1]", "result": "suppressed both IL-1β and TNFα production in a concentration dependent manner"},
      {"measurement": "TNFα production", "setting": "[1]", "result": "suppressed both IL-1β and TNFα production in a concentration dependent manner"}
    ]},
    {"smiles": "Clc1cc(-c2ccccc2)nnc1N1CCN(c2ncccn2)CC1", "note": "[MW01-6-127WH, 4-chloro-6-phenyl-3-(4-pyrimidin-2-ylpiperazin-1-yl)pyridazine]", "values": [
      {"measurement": "inhibition at 10 µM", "setting": "hERG", "result": 19, "unit": "%"}
    ]}
  ]
}
